Measured values: patent US12295936B2, “Immunomodulating urea azalides” (Zoetis Services LLC, priority 2020, dated 2025)

What was measured:
IL-1β = assay: LPS-stimulated whole bovine blood assay, MSD cytokine detection; format: cell-based; details: overstimulation of IL-1β, LPS-stimulated bovine whole blood
IL-6 = assay: as above; format: cell-based; details: Bos taurus, LPS-stimulated bovine whole blood; read-out: IL-6 (IC50 μM)
Description: In order to correlate RNA sequencing data to cytokine changes the whole blood assay was utilized. […] The enhancement result represents an overall stimulation of cytokine levels due to cellular stress or potential toxicity with increasing concentrations of the compound, representing a typical bell shape response curve for immunomodulatory activity.

TNF-α = assay: as above; format: cell-based; details: Bos taurus, LPS-stimulated bovine whole blood; read-out: TNF-α (IC50 μM)
[1] = test system: BRD pathogens, M. haemolytica and P. multocida; assay: MIC screening panel of BRD pathogens (antibacterial / non-antibacterial); details: read-out: antibacterial / non-antibacterial (MIC for the BRD pathogens)

IC50 (IL-6) [µM] | IC50 (TNF-α) [µM] | SMILES | IL-1β OS of LPS (IL-1β) [µM] | MIC [1] [µg/mL]
29 | 34 | CC[C@H]1OC(=O)[C@H](C)[C@@H](O[C@H]2C[C@@](C)(OC)[C@](O)(CNCCS(=O)(=O)c3ccccc3)[C@H](C)O2)[C@H](C)[C@@H](O[C@@H]2O[C@H](C)C[C@H](N(C)C(=O)N(C)c3ccccc3)[C@H]2O)[C@](C)(O)C[C@@H](C)CN[C@H](C)[C@@H](O)[C@]1(C)O [Example H-43, 1-((2S,3R,4S,6R)-2-(((2R,3S,4R,5R,8R,10R,11R,12S,13S,14R)-2-ethyl-3,4,10-trihydroxy-13-(((2R,4R,5S,6S)-5-hydroxy-4-methoxy-4,6-dimethyl-5-(((2-(phenylsulfonyl)ethyl)amino)methyl)tetrahydro-2H-pyran-2-yl)oxy)-3,5,8,10,12,14-hexamethyl-15-oxo-1-oxa-6-azacyclopentadecan-11-yl)oxy)-3-hydroxy-6-methyltetrahydro-2H-pyran-4-yl)-1,3-dimethyl-3-phenylurea] | 16 | > 64
52 | 26 | CCCNC[C@]1(O)[C@H](C)O[C@@H](O[C@H]2[C@H](C)[C@@H](O[C@@H]3O[C@H](C)C[C@H](N(C)C(=O)N(C)c4ncc(Cl)cn4)[C@H]3O)[C@](C)(O)C[C@@H](C)CN[C@H](C)[C@@H](O)[C@](C)(O)[C@@H](CC)OC(=O)[C@@H]2C)C[C@@]1(C)OC [Example H-51, 1-(5-chloropyrimidin-2-yl)-3-((2S,3R,4S,6R)-2-(((2R,3S,4R,5R,8R,10R,11R,12S,13S,14R)-2-ethyl-3,4,10-trihydroxy-13-(((2R,4R,5S,6S)-5-hydroxy-4-methoxy-4,6-dimethyl-5-((propylamino)methyl)tetrahydro-2H-pyran-2-yl)oxy)-3,5,8,10,12,14-hexamethyl-15-oxo-1-oxa-6-azacyclopentadecan-11-yl)oxy)-3-hydroxy-6-methyltetrahydro-2H-pyran-4-yl)-1,3-dimethylurea] | 40 | > 64
6 | 79 | CCCNC[C@]1(O)[C@H](C)O[C@@H](O[C@H]2[C@H](C)[C@@H](O[C@@H]3O[C@H](C)C[C@H](N(C)C(=O)N(C)c4nccnn4)[C@H]3O)[C@](C)(O)C[C@@H](C)CN[C@H](C)[C@@H](O)[C@](C)(O)[C@@H](CC)OC(=O)[C@@H]2C)C[C@@]1(C)OC [Example H-56, 1-((2S,3R,4S,6R)-2-(((2R,3S,4R,5R,8R,10R,11R,12S,13S,14R)-2-ethyl-3,4,10-trihydroxy-13-(((2R,4R,5S,6S)-5-hydroxy-4-methoxy-4,6-dimethyl-5-((propylamino)methyl)tetrahydro-2H-pyran-2-yl)oxy)-3,5,8,10,12,14-hexamethyl-15-oxo-1-oxa-6-azacyclopentadecan-11-yl)oxy)-3-hydroxy-6-methyltetrahydro-2H-pyran-4-yl)-1,3-dimethyl-3-(1,2,4-triazin-3-yl)urea] | 18 | > 64
30 | 9 | CCCNC[C@]1(O)[C@H](C)O[C@@H](O[C@H]2[C@H](C)[C@@H](O[C@@H]3O[C@H](C)C[C@H](N(C)C(=O)N(C)c4ccncc4)[C@H]3O)[C@](C)(O)C[C@@H](C)CN[C@H](C)[C@@H](O)[C@](C)(O)[C@@H](CC)OC(=O)[C@@H]2C)C[C@@]1(C)OC [Example H-59, 1-((2S,3R,4S,6R)-2-(((2R,3S,4R,5R,8R,10R,11R,12S,13S,14R)-2-ethyl-3,4,10-trihydroxy-13-(((2R,4R,5S,6S)-5-hydroxy-4-methoxy-4,6-dimethyl-5-((propylamino)methyl)tetrahydro-2H-pyran-2-yl)oxy)-3,5,8,10,12,14-hexamethyl-15-oxo-1-oxa-6-azacyclopentadecan-11-yl)oxy)-3-hydroxy-6-methyltetrahydro-2H-pyran-4-yl)-1,3-dimethyl-3-(pyridin-4-yl)urea] | 16 | > 64
1 | 1 | CCCNC[C@]1(O)[C@H](C)O[C@@H](O[C@H]2[C@H](C)[C@@H](O[C@@H]3O[C@H](C)C[C@H](N(C)C(=O)N(C)c4ccncc4C)[C@H]3O)[C@](C)(O)C[C@@H](C)CN[C@H](C)[C@@H](O)[C@](C)(O)[C@@H](CC)OC(=O)[C@@H]2C)C[C@@]1(C)OC [Example H-62, 1-((2S,3R,4S,6R)-2-(((2R,3S,4R,5R,8R,10R,11R,12S,13S,14R)-2-ethyl-3,4,10-trihydroxy-13-(((2R,4R,5S,6S)-5-hydroxy-4-methoxy-4,6-dimethyl-5-((propylamino)methyl)tetrahydro-2H-pyran-2-yl)oxy)-3,5,8,10,12,14-hexamethyl-15-oxo-1-oxa-6-azacyclopentadecan-11-yl)oxy)-3-hydroxy-6-methyltetrahydro-2H-pyran-4-yl)-1,3-dimethyl-3-(3-methylpyridin-4-yl)urea] | <1 | > 64
28 | 28 | CCCNC[C@]1(O)[C@H](C)O[C@@H](O[C@H]2[C@H](C)[C@@H](O[C@@H]3O[C@H](C)C[C@H](N(Cc4nccs4)C(=O)N(C)c4ccccc4)[C@H]3O)[C@](C)(O)C[C@@H](C)CN[C@H](C)[C@@H](O)[C@](C)(O)[C@@H](CC)OC(=O)[C@@H]2C)C[C@@]1(C)OC [Example H-64, 1-((2S,3R,4S,6R)-2-(((2R,3S,4R,5R,8R,10R,11R,12S,13S,14R)-2-ethyl-3,4,10-trihydroxy-13-(((2R,4R,5S,6S)-5-hydroxy-4-methoxy-4,6-dimethyl-5-((propylamino)methyl)tetrahydro-2H-pyran-2-yl)oxy)-3,5,8,10,12,14-hexamethyl-15-oxo-1-oxa-6-azacyclopentadecan-11-yl)oxy)-3-hydroxy-6-methyltetrahydro-2H-pyran-4-yl)-3-methyl-3-phenyl-1-(thiazol-2-ylmethyl)urea] | 16 | > 64
6 | 9 | CCCNC[C@]1(O)[C@H](C)O[C@@H](O[C@H]2[C@H](C)[C@@H](O[C@@H]3O[C@H](C)C[C@H](N(Cc4ccccc4)C(=O)N(C)c4ccccc4)[C@H]3O)[C@](C)(O)C[C@@H](C)CN[C@H](C)[C@@H](O)[C@](C)(O)[C@@H](CC)OC(=O)[C@@H]2C)C[C@@]1(C)OC [Example H-65, 1-benzyl-1-((2S,3R,4S,6R)-2-(((2R,3S,4R,5R,8R,10R,11R,12S,13S,14R)-2-ethyl-3,4,10-trihydroxy-13-(((2R,4R,5S,6S)-5-hydroxy-4-methoxy-4,6-dimethyl-5-((propylamino)methyl)tetrahydro-2H-pyran-2-yl)oxy)-3,5,8,10,12,14-hexamethyl-15-oxo-1-oxa-6-azacyclopentadecan-11-yl)oxy)-3-hydroxy-6-methyltetrahydro-2H-pyran-4-yl)-3-methyl-3-phenylurea] | 2 | > 64
92 | 56 | CCCNC[C@]1(O)[C@H](C)O[C@@H](O[C@H]2[C@H](C)[C@@H](O[C@@H]3O[C@H](C)C[C@H](N(C)C(=O)Nc4cccc(Cl)c4)[C@H]3O)[C@](C)(O)C[C@@H](C)CN[C@H](C)[C@@H](O)[C@](C)(O)[C@@H](CC)OC(=O)[C@@H]2C)C[C@@]1(C)OC [Example H-88, 3-(3-chlorophenyl)-1-((2S,3R,4S,6R)-2-(((2R,3S,4R,5R,8R,10R,11R,12S,13S,14R)-2-ethyl-3,4,10-trihydroxy-13-(((2R,4R,5S,6S)-5-hydroxy-4-methoxy-4,6-dimethyl-5-((propylamino)methyl)tetrahydro-2H-pyran-2-yl)oxy)-3,5,8,10,12,14-hexamethyl-15-oxo-1-oxa-6-azacyclopentadecan-11-yl)oxy)-3-hydroxy-6-methyltetrahydro-2H-pyran-4-yl)-1-methylurea] | 13 | > 64
11 | 8 | CCCNC[C@]1(O)[C@H](C)O[C@@H](O[C@H]2[C@H](C)[C@@H](O[C@@H]3O[C@H](C)C[C@H](N(C)C(=O)N(C)c4ccccc4)[C@H]3O)[C@](C)(O)C[C@@H](C)CN(CCC)[C@H](C)[C@@H](O)[C@](C)(O)[C@@H](CC)OC(=O)[C@@H]2C)C[C@@]1(C)OC [Example H-102, 1-((2S,3R,4S,6R)-2-(((2R,3S,4R,5R,8R,10R,11R,12S,13S,14R)-2-ethyl-3,4,10-trihydroxy-13-(((2R,4R,5S,6S)-5-hydroxy-4-methoxy-4,6-dimethyl-5-((propylamino)methyl)tetrahydro-2H-pyran-2-yl)oxy)-3,5,8,10,12,14-hexamethyl-15-oxo-6-propyl-1-oxa-6-azacyclopentadecan-11-yl)oxy)-3-hydroxy-6-methyltetrahydro-2H-pyran-4-yl)-1,3-dimethyl-3-phenylurea] | 8 | > 64
4 | 5 | CCCNC[C@]1(O)[C@H](C)O[C@@H](O[C@H]2[C@H](C)[C@@H](O[C@@H]3O[C@H](C)C[C@H](N(C)C(=O)N(C)c4ccc(C(F)(F)F)cc4)[C@H]3O)[C@](C)(O)C[C@@H](C)CN(CCC)[C@H](C)[C@@H](O)[C@](C)(O)[C@@H](CC)OC(=O)[C@@H]2C)C[C@@]1(C)OC [Example H-103, 1-((2S,3R,4S,6R)-2-(((2R,3S,4R,5R,8R,10R,11R,12S,13S,14R)-2-ethyl-3,4,10-trihydroxy-13-(((2R,4R,5S,6S)-5-hydroxy-4-methoxy-4,6-dimethyl-5-((propylamino)methyl)tetrahydro-2H-pyran-2-yl)oxy)-3,5,8,10,12,14-hexamethyl-15-oxo-6-propyl-1-oxa-6-azacyclopentadecan-11-yl)oxy)-3-hydroxy-6-methyltetrahydro-2H-pyran-4-yl)-1,3-dimethyl-3-(4-(trifluoromethyl)phenyl)urea] | 3 | > 64
